Laboratory results from patent publication US20240245673A1, “Papain-like protease (PLpro) inhibitors” (Pfizer Inc., priority 2022, published 2024).
Where two headings read alike, the source gives them in different places.

Target: SARS-CoV-2 Papain like protease (PLpro) (Severe acute respiratory syndrome coronavirus 2 (2019-nCoV) (SARS-CoV-2), UniProt P0DTD1)
Test: Papain Like Protease (PLpro) biochemical assay with profluorogenic substrate Z-RLRGG-AMC
Conditions: SARS-CoV-2 PLpro 6.25 nM, 25 μM Z-RLRGG-AMC substrate, 60 minute reaction

Cc1ccc(CN)cc1C(=O)NC(C)c1cc(-c2cnn(C)c2)cc2ccccc12 (centres unmarked) [Example 3, 5-(aminomethyl)-2-methyl-N-(1-(3-(1-methyl-1H-pyrazol-4-yl)naphthalen-1-yl)ethyl)benzamide]
IC50 (read-out: IC50): 0.048 µM

Cc1ccc(NC(=O)[C@H]2CCCCN2)cc1C(=O)NC(C)c1cc(-c2cnn(C)c2)cc2ccccc12 (stereo partly drawn) [Example 4, (2R)—N-(4-methyl-3-((1-(3-(1-methyl-1H-pyrazol-4-yl)naphthalen-1-yl)ethyl)carbamoyl)phenyl)piperidine-2-carboxamide]
IC50 (read-out: IC50): 0.023 µM

Cc1cc(CN)ccc1C(=O)NC(C)c1cc(-c2cnn(C)c2)cc2ccccc12 (centres unmarked) [Example 5, 4-(aminomethyl)-2-methyl-N-(1-(3-(1-methyl-1H-pyrazol-4-yl)naphthalen-1-yl)ethyl)benzamide]
IC50 (read-out: IC50): 0.087 µM

Cc1cc(CNCc2ncc[nH]2)ccc1C(=O)NC(C)c1cc(-c2cnn(C)c2)cc2ccccc12 (centres unmarked) [Example 6, 4-((((1H-imidazol-2-yl)methyl)amino)methyl)-2-methyl-N-(1-(3-(1-methyl-1H-pyrazol-4-yl)naphthalen-1-yl)ethyl)benzamide]
IC50 (read-out: IC50): 0.019 µM

Cc1cc(CNCc2cscn2)ccc1C(=O)NC(C)c1cc(-c2cnn(C)c2)cc2ccccc12 (centres unmarked) [Example 7, 2-methyl-N-(1-(3-(1-methyl-1H-pyrazol-4-yl)naphthalen-1-yl)ethyl)-4-(((thiazol-4-ylmethyl)amino)methyl)benzamide]
IC50 (read-out: IC50): 0.013 µM

CNCc1ccc(C)c(C(=O)NC(C)c2cc(-c3cnn(C)c3)cc3ccccc23)c1 (centres unmarked) [Example 10, 2-methyl-N-(1-(3-(1-methyl-1H-pyrazol-4-yl)naphthalen-1-yl)ethyl)-5-((methylamino)methyl)benzamide]
IC50 (read-out: IC50): 0.033 µM

Cc1ccc(CN)cc1C(=O)N[C@H](C)c1cc(-c2cnn(C)c2)nc2ccccc12 [Example 11, (R)-5-(aminomethyl)-2-methyl-N-(1-(2-(1-methyl-1H-pyrazol-4-yl)quinolin-4-yl)ethyl)benzamide]
IC50 (read-out: IC50): 0.027 µM

Cc1ccccc1C(=O)N[C@H](C)c1cc(-c2ccn(C)n2)nc2ccccc12 [Example 12, (R)-2-methyl-N-(1-(2-(1-methyl-1H-pyrazol-3-yl)quinolin-4-yl)ethyl)benzamide]
IC50 (read-out: IC50): 0.532 µM

CNCc1ccc(C)c(C(=O)N[C@H](C)c2cc(-c3cnn(C)c3)nc3ccccc23)c1 [Example 13, (R)-2-methyl-N-(1-(2-(1-methyl-1H-pyrazol-4-yl)quinolin-4-yl)ethyl)-5-((methylamino)methyl)benzamide]
IC50 (read-out: IC50): 0.024 µM

Cc1ccc(NC(=O)[C@H]2CCCCN2)cc1C(=O)N[C@H](C)c1cc(-c2cnn(C)c2)nc2ccccc12 [Example 14, (R)-N-(4-methyl-3-(((R)-1-(2-(1-methyl-1H-pyrazol-4-yl)quinolin-4-yl)ethyl)carbamoyl)phenyl)piperidine-2-carboxamide]
IC50 (read-out: IC50): 0.019 µM

Cc1ccc(N(C)C(=O)[C@H]2CCCCN2)cc1C(=O)N[C@H](C)c1cc(-c2cnn(C)c2)nc2ccccc12 [Example 15, (R)—N-methyl-N-(4-methyl-3-(((R)-1-(2-(1-methyl-1H-pyrazol-4-yl)quinolin-4-yl)ethyl)carbamoyl)phenyl)piperidine-2-carboxamide]
IC50 (read-out: IC50): 0.495 µM

Cc1ccc(CN)cc1C(=O)N[C@H](C)c1cc(-n2cnnc2)nc2ccccc12 [Example 16, (R)—N-(1-(2-(4H-1,2,4-triazol-4-yl)quinolin-4-yl)ethyl)-5-(aminomethyl)-2-methylbenzamide]
IC50 (read-out: IC50): 0.149 µM

CNCc1ccc(C)c(C(=O)N[C@H](C)c2cc(-c3cn[nH]c3)nc3ccccc23)c1 [Example 17, (R)—N-(1-(2-(1H-pyrazol-4-yl)quinolin-4-yl)ethyl)-2-methyl-5-((methylamino)methyl)benzamide]
IC50 (read-out: IC50): 0.022 µM

Cc1ccc(CN)cc1C(=O)N[C@H](C)c1cc(-c2cn[nH]c2)nc2ccccc12 [Example 18, (R)-N-(1-(2-(1H-pyrazol-4-yl)quinolin-4-yl)ethyl)-5-(aminomethyl)-2-methylbenzamide]
IC50 (read-out: IC50): 0.027 µM

COC(=O)c1c[nH]c(-c2cc([C@@H](C)NC(=O)c3cc(CN)ccc3C)c3ccccc3n2)c1 [Example 19, methyl(R)-5-(4-(1-(5-(aminomethyl)-2-methylbenzamido)ethyl)quinolin-2-yl)-1H-pyrrole-3-carboxylate]
IC50 (read-out: IC50): 0.015 µM

Cc1ccc(CN)cc1C(=O)N[C@H](C)c1cc(-c2cc(C(=O)O)c[nH]2)nc2ccccc12 [Example 20, (R)-5-(4-(1-(5-(aminomethyl)-2-methylbenzamido)ethyl)quinolin-2-yl)-1H-pyrrole-3-carboxylic acid]
IC50 (read-out: IC50): 0.041 µM

Cc1ccc(CN)cc1C(=O)N[C@H](C)c1cc(-c2cc(C(N)=O)c[nH]2)nc2ccccc12 [Example 21, (R)-5-(4-(1-(5-(aminomethyl)-2-methylbenzamido)ethyl)quinolin-2-yl)-1H-pyrrole-3-carboxamide]
IC50 (read-out: IC50): 0.016 µM

CNC(=O)c1c[nH]c(-c2cc([C@@H](C)NC(=O)c3cc(CN)ccc3C)c3ccccc3n2)c1 [Example 22, (R)-5-(4-(1-(5-(aminomethyl)-2-methylbenzamido)ethyl)quinolin-2-yl)-N-methyl-1H-pyrrole-3-carboxamide]
IC50 (read-out: IC50): 0.017 µM

Cc1ccc(CN)cc1C(=O)N[C@H](C)c1cc(-n2ccnn2)nc2ccccc12 [Example 23, (R)—N-(1-(2-(1H-1,2,3-triazol-1-yl)quinolin-4-yl)ethyl)-5-(aminomethyl)-2-methylbenzamide]
IC50 (read-out: IC50): 0.293 µM

Cc1ccc(CN)cc1C(=O)N[C@H](C)c1cc(-n2cncn2)nc2ccccc12 [Example 24, (R)-N-(1-(2-(1H-1,2,4-triazol-1-yl)quinolin-4-yl)ethyl)-5-(aminomethyl)-2-methylbenzamide]
IC50 (read-out: IC50): 0.25 µM

Cc1ccc(CN)cc1C(=O)NC(C)c1cc(-n2cc(C(F)(F)F)nn2)nc2ccccc12 (centres unmarked) [Example 31, 5-(aminomethyl)-2-methyl-N-(1-(2-(4-(trifluoromethyl)-1H-1,2,3-triazol-1-yl)quinolin-4-yl)ethyl)benzamide]
IC50 (read-out: IC50): 0.674 µM

Cc1ccc(CN)cc1C(=O)NC(C)c1cc(-n2ncc(C(F)(F)F)n2)nc2ccccc12 (centres unmarked) [Example 32, 5-(aminomethyl)-2-methyl-N-(1-(2-(4-(trifluoromethyl)-2H-1,2,3-triazol-2-yl)quinolin-4-yl)ethyl)benzamide]
IC50 (read-out: IC50): 0.676 µM

Cc1ccc(CN)cc1C(=O)NC(C)c1cc(-n2cnnc2C(N)=O)nc2ccccc12 (centres unmarked) [Example 33, 4-(4-(1-(5-(aminomethyl)-2-methylbenzamido)ethyl)quinolin-2-yl)-4H-1,2,4-triazole-3-carboxamide]
IC50 (read-out: IC50): 1.36 µM

Cc1ccc(CN)cc1C(=O)NC(C)c1cc(N2CCCC2=O)nc2ccccc12 (centres unmarked) [Example 34, 5-(aminomethyl)-2-methyl-N-(1-(2-(2-oxopyrrolidin-1-yl)quinolin-4-yl)ethyl)benzamide]
IC50 (read-out: IC50): 1.45 µM

Cc1ccc(CN)cc1C(=O)NC(C)c1cc(-n2ccc(C#N)n2)nc2ccccc12 (centres unmarked) [Example 35, 5-(aminomethyl)-N-(1-(2-(3-cyano-1H-pyrazol-1-yl)quinolin-4-yl)ethyl)-2-methylbenzamide]
IC50 (read-out: IC50): 1.48 µM

Cc1ccc(CN)cc1C(=O)NC(C)c1cc(-n2ccnc2)nc2ccccc12 (centres unmarked) [Example 36, N-(1-(2-(1H-imidazol-1-yl)quinolin-4-yl)ethyl)-5-(aminomethyl)-2-methylbenzamide]
IC50 (IC50 (μM)): 0.21 µM

Cc1ccccc1C(=O)N[C@H](C)c1cc(NC2COC2)nc2ccccc12 [Example 37, (R)-2-methyl-N-(1-(2-(oxetan-3-ylamino)quinolin-4-yl)ethyl)benzamide]
IC50 (read-out: IC50): 10 µM

Cc1ccccc1C(=O)N[C@H](C)c1cc(Nc2ccn(C)n2)nc2ccccc12 [Example 38, (R)-2-methyl-N-(1-(2-((1-methyl-1H-pyrazol-3-yl)amino)quinolin-4-yl)ethyl)benzamide]
IC50 (read-out: IC50): 1.63 µM

Cc1ccccc1C(=O)N[C@H](C)c1cc(N)nc2ccccc12 [Example 39, (R)-N-(1-(2-aminoquinolin-4-yl)ethyl)-2-methylbenzamide]
IC50 (read-out: IC50): 0.861 µM

CC(=O)Nc1cc([C@@H](C)NC(=O)c2ccccc2C)c2ccccc2n1 [Example 40, (R)—N-(1-(2-acetamidoquinolin-4-yl)ethyl)-2-methylbenzamide]
IC50 (read-out: IC50): 3.16 µM

CNc1cc([C@@H](C)NC(=O)c2ccccc2C)c2ccccc2n1 [Example 41, (R)-2-methyl-N-(1-(2-(methylamino)quinolin-4-yl)ethyl)benzamide]
IC50 (read-out: IC50): 1.01 µM

Cc1ccccc1C(=O)N[C@H](C)c1cc(N(C)C)nc2ccccc12 [Example 42, (R)-N-(1-(2-(dimethylamino)quinolin-4-yl)ethyl)-2-methylbenzamide]
IC50 (read-out: IC50): 2.17 µM

Cc1ccccc1C(=O)N[C@H](C)c1cc(OCC2CCOC2)nc2ccccc12 (stereo partly drawn) [Example 43, 2-methyl-N-((1R)-1-(2-((tetrahydrofuran-3-yl)methoxy)quinolin-4-yl)ethyl)benzamide]
IC50 (read-out: IC50): 3.08 µM

Cc1ccccc1C(=O)N[C@H](C)c1cc(OCC2COC2)nc2ccccc12 [Example 44, (R)-2-methyl-N-(1-(2-(oxetan-3-ylmethoxy)quinolin-4-yl)ethyl)benzamide]
IC50 (read-out: IC50): 3.97 µM

Cc1ccccc1C(=O)N[C@H](C)c1cc(OCCO)nc2ccccc12 [Example 45, (R)-N-(1-(2-(2-hydroxyethoxy)quinolin-4-yl)ethyl)-2-methylbenzamide]
IC50 (read-out: IC50): 3.48 µM

Cc1ccccc1C(=O)N[C@H](C)c1cc(OC2CCOC2)nc2ccccc12 (stereo partly drawn) [Example 46, 2-methyl-N-((1R)-1-(2-((tetrahydrofuran-3-yl)oxy)quinolin-4-yl)ethyl)benzamide]
IC50 (read-out: IC50): 3.62 µM

COCCOc1cc([C@@H](C)NC(=O)c2ccccc2C)c2ccccc2n1 [Example 47, (R)-N-(1-(2-(2-methoxyethoxy)quinolin-4-yl)ethyl)-2-methylbenzamide]
IC50 (read-out: IC50): 3.13 µM

Cc1ccccc1C(=O)N[C@H](C)c1cc(-c2ccn[nH]2)nc2ccccc12 [Example 48, (R)—N-(1-(2-(1H-pyrazol-5-yl)quinolin-4-yl)ethyl)-2-methylbenzamide]
IC50 (read-out: IC50): 0.28 µM
